Measurements: paper PMC7255010, “Small-molecule activating SIRT6 elicits therapeutic effects and synergistically promotes anti-tumor activity of vitamin D3 in colorectal cancer” (Theranostics, 2020)

Columns and labels:
CYP24A1 = assay: RT-qPCR of CYP24A1 mRNA in CRC cells; format: cell-based, human; settings: HCT116 and HT29 cells, 1,25(OH)2D3 (5 µM), 48 h
Procedure: Total RNA was extracted with TRIzol reagent (Invitrogen) according to the manufacturer's instructions. For cDNA synthesis, 1 μg of total RNA was reverse transcribed using a FastKing RT Kit (Tiangen). RT-qPCRs were run in triplicate using SYBR Green master mix (Roche) in an ABI 7900 Thermal Cycler (Applied Biosystems) according to the manufacturer's instructions. RT-qPCRs were performed in triplicate, and the mean cycle threshold (Ct) values were calculated for expression analysis. The mRNA levels of target genes were calculated using the 2^-ΔΔCt method. The expression data were normalized to β-actin expression levels and are presented as the mean ± s.e.m. of three independent experiments.

SIRT6 = SIRT6 (Homo sapiens, UniProt Q8N6T7); assay: FDL assay of SIRT6 deacetylase activity (RHKK-Ac-AMC); format: biochemical; parameters: WT (wild-type) full-length human SIRT6 was inserted into the pET28a-LIC vector; made in house; host or cells: Escherichia coli BL21 (DE3); settings: activation of SIRT6 deacetylation, RHKK-Ac-AMC (75 µM), mean ± s.d., three independent experiments
SIRT6, sequence (Q8N6T7 whole entry): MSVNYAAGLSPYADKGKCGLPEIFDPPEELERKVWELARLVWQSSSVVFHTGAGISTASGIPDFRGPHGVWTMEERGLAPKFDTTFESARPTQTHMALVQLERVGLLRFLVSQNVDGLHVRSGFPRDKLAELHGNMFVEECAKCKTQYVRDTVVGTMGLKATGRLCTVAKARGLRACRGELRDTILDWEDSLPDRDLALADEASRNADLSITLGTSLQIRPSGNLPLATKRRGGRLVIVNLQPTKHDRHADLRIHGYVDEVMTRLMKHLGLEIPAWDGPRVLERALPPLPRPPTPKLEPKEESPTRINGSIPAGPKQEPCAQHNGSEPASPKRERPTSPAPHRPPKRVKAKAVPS
Procedure: According to previously described methods, WT (wild-type) full-length human SIRT6 was inserted into the pET28a-LIC vector (Addgene plasmid #26094). The plasmid was transformed into Escherichia coli BL21 (DE3) cells. Protein was purified using a nickel column and gel filtration. Purified protein was dialyzed into assay buffer (50 mM Tris-HCl [pH 8.0], 137 mM NaCl, 2.7 mM KCl, and 1 mM MgCl2) and used in all in vitro assays performed in this study.
For the assessment of SIRT6 deacetylase activity, 5 μM WT SIRT6 was incubated in a 50-μL reaction mixture (2.5 mM NAD^+, 75 μM RHKK-Ac-AMC, compounds/DMSO, and assay buffer) at 37 °C for 2 h, quenched with 40 mM nicotinamide, and developed with 6 mg/mL trypsin for another 30 min at 25 °C. […] Fluorescence intensity was measured using a microplate reader (Synergy H4 Hybrid Reader, BioTek) at excitation and emission wavelengths of 360 nm and 460 nm, respectively. EC50 values were calculated by fitting the data points with the dose-response function in GraphPad Prism V7 (GraphPad Software). Each experiment was independently repeated three times in technical triplicates.

[1] = Pharmacokinetic studies in mice; format: in vivo; parameters: t1/2 / F (bioavailability): dose or concentration left out as unconfirmed; settings: C57BL/6J mice
Procedure: Pharmacokinetic studies were performed by Shanghai Medicilon Inc, China, following standard protocols. Briefly, six-week-old male C57BL/6J mice were grouped randomly (n = 5 per group). […] Two administration formulations were prepared in the vehicle with 5% DMSO, 10% Solutol and 85% saline, with the pH adjusted to 7.0-8.0. After treatment, the mice were sacrificed, and their plasma samples were collected at 5 min, 15 min, 30 min, 1 h, 2 h, 4 h, 8 h, and 24 h. The drug concentration in plasma was analyzed by LC-MS/MS. Pharmacokinetic parameters were calculated using Analyst Software 1.6.3 from mean plasma concentration-time profiles. The area under the curve (AUC) was measured from time versus concentration data by the linear trapezoidal rule. […] The calculation was normalized to relative doses.

Structure (SMILES)	EC50 (SIRT6)	other results
C=C1/C(=C\C=C2/CCC[C@]3(C)[C@@H]([C@H](C)CCCC(C)(C)O)CC[C@@H]23)C[C@@H](O)C[C@@H]1O [1,25(OH)2D3, 1,25-dihydroxyvitamin D3, reference compound]	–	CYP24A1 transcription (CYP24A1): dramatically induced CYP24A1 transcription
Cc1cc(F)c(Br)cc1NS(=O)(=O)c1ccc(NS(=O)(=O)c2cc(Cl)cc(Cl)c2)cc1CN(C)C [MDL-818]	43.6 ± 3.2 µM	–
COC(=O)c1cc(NS(=O)(=O)c2cc(Cl)cc(Cl)c2)ccc1S(=O)(=O)Nc1cc(Br)c(F)cc1C [MDL-800, reference compound]	–	F (bioavailability) ([1]; IP vs IV, ratio of AUC normalized to dose): 71.33%; AUC0-t ([1]; IP, plasma, mean of five mice): 17831.51 ng·h/mL; AUC0-∞ ([1]; IP, plasma, mean of five mice): 17883.09 ng·h/mL; Cmax ([1]; IP, plasma, mean of five mice): 6610.46 ng/mL; MRT ([1]; IP, plasma, mean of five mice): 2.47 h; t1/2 ([1]; IP, plasma, mean of five mice): 2.07 h; tmax ([1]; IP, plasma, mean of five mice): 0.50 h
CCCN(C)Cc1cc(NS(=O)(=O)c2cc(Cl)cc(Cl)c2)ccc1S(=O)(=O)Nc1cc(Br)c(F)cc1C [MDL-820]	38.4 ± 1.8 µM	–
CCCCN1CCN(Cc2cc(NS(=O)(=O)c3cc(Cl)cc(Cl)c3)ccc2S(=O)(=O)Nc2cc(Br)c(F)cc2C)CC1 [MDL-816]	7.1 ± 0.3 µM	–
Cc1cc(F)c(Br)cc1NS(=O)(=O)c1ccc(NS(=O)(=O)c2cc(Cl)cc(Cl)c2)cc1CN1CCC(N2CCCCC2)CC1 [MDL-814]	12.2 ± 0.7 µM	–
Cc1cc(F)c(Br)cc1NS(=O)(=O)c1ccc(NS(=O)(=O)c2cc(Cl)cc(Cl)c2)cc1CN1CCNCC1 [MDL-812]	12.8 ± 1 µM	–
CCN(C)Cc1cc(NS(=O)(=O)c2cc(Cl)cc(Cl)c2)ccc1S(=O)(=O)Nc1cc(Br)c(F)cc1C [MDL-819]	34.1 ± 2.6 µM	–
COCCCN1CCN(Cc2cc(NS(=O)(=O)c3cc(Cl)cc(Cl)c3)ccc2S(=O)(=O)Nc2cc(Br)c(F)cc2C)CC1 [MDL-815]	6.5 ± 0.4 µM	–
CCCCN(CC)Cc1cc(NS(=O)(=O)c2cc(Cl)cc(Cl)c2)ccc1S(=O)(=O)Nc1cc(Br)c(F)cc1C [MDL-813]	15.4 ± 0.4 µM	–
Cc1cc(F)c(Br)cc1NS(=O)(=O)c1ccc(NS(=O)(=O)c2cc(Cl)cc(Cl)c2)cc1CN1CCC(N(C)C)C1 (stereo not shown) [MDL-817]	9.9 ± 1.5 µM	–
Cc1cc(F)c(Br)cc1NS(=O)(=O)c1ccc(NS(=O)(=O)c2cc(Cl)cc(Cl)c2)cc1CN1CCCC1CO (stereo not shown) [MDL-822]	23.9 ± 1 µM	–
Cc1cc(F)c(Br)cc1NS(=O)(=O)c1ccc(NS(=O)(=O)c2cc(Cl)cc(Cl)c2)cc1CN1CCCCC1 [MDL-821]	12.2 ± 0.9 µM	–
